US6737435B1, “Indole derivatives and their use as MCP-1 antagonist” (AstraZeneca AB, priority 1999, dated 2004)

Key:
THP-1 cells [1] = test: MCP-1 mediated calcium flux in THP-1 cells; format: cell-based, human; conditions: stimulation of THP-1 cells with hMCP-1, FURA-2; read-out: EC50 of rise in [Ca2+]i
Description: The human monocytic cell line THP-1 was grown in a synthetic cell culture medium RPMI 1640 supplemented with 10% foetal calf serum, 6 mM glutamine and Penicillin-Streptomycin (at 50 μg streptomycin/ml, Gibco BRL). THP-1 cells were washed in HBSS (lacking Ca^2+ and Mg^2+)+1 mg/ml BSA and resuspended in the same buffer at a density of 3×10^6 cells/ml. The cells were then loaded with […] FURA-2/AM for 30 min at 37° C., washed twice in HBSS, and resuspended at 1×10^6 cells/ml. THP-1 cell suspension (0.9 ml) was added to a 5 ml disposable cuvette containing a magnetic stirrer bar and 2.1 ml of prewarmed (37° C.) HBSS containing 1 mg/ml BSA, 1 mM MgCl2 and 2 mM CaCl2. The cuvette was placed in a fluorescence spectrophotometer (Perkin Elmer, Norwalk, Conn.) and preincubated for 4 min at 37° C. with stirring. Fluorescence was recorded over 70 sec and cells were stimulated by addition of hMCP-1 to the cuvette after 10 sec. [Ca^2+]i was measured by excitation at 340 nm and 380 nm alternately and subsequent measurement of the intensity of the fluorescence emission at 510 nm.
where the Kd for FURA-2 Ca^2+ complex at 37° C. was taken to be 224 nm. […]

MCP-1 receptor B (CCR2B) = target: T1, MCP-1 receptor B (CCR2B) (Homo sapiens, UniProt P41597); test: hMCP-1 receptor binding assay (125I-MCP-1, CHO-CCR2B cell membranes)
T1 construct: expressed in transfected cells; host or cells: CHO-K1 (clone 7, CHO-CCR2B), stably transfected with pCDNA3/CCR2B; membrane fragments
T1 sequence (P41597 1-360 isoform P41597-2): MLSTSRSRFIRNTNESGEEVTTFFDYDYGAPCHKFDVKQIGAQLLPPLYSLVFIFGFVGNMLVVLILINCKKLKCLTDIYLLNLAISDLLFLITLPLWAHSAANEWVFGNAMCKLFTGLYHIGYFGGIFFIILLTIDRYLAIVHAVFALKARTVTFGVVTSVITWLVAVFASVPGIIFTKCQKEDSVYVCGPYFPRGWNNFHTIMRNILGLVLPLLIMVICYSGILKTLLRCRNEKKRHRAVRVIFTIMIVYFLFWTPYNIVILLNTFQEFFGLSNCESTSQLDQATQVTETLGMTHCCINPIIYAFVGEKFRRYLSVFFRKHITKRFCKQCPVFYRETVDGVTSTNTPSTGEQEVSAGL
Description: The MCP-1 receptor B (CCR2B) cDNA was cloned by PCR from THP-1 cell RNA using suitable oligonucleotide primers based on the published MCP-1 receptor sequences (Charo et al., 1994, Proc. Natl. Acad. Sci. USA, 91, 2752). The resulting PCR products were cloned into vector PCR-II™ (InVitrogen, San Diego, Calif.). Error free CCR2B cDNA was subcloned as a Hind III-Not I fragment into the eukaryotic expression vector pCDNA3 (InVitrogen) to generate pCDNA3/CC-CKR2A and pCDNA3/CCR2B respectively.
Linearised pCDNA3/CCR2B DNA was transfected into CHO-K1 cells by calcium phosphate precipitation (Wigler et al., 1979, Cell, 16, 777). Transfected cells were selected by the addition of Geneticin Sulphate (G418, Gibco BRL) at 1 mg/ml, 24 hours after the cells had been transfected. Preparation of RNA and Northern blotting were carried out as described previously (Needham et al., 1995, Prot. Express. Purific., 6, 134). CHO-K1 clone 7 (CHO-CCR2B) was identified as the highest MCP-1 receptor B expresser.
CHO-CCR2B cells were grown in DMEM supplemented with 10% foetal calf serum, 2 mM glutamine, 1×Non-Essential Amino Acids, 1×Hypoxanthine and Thymidine Supplement and Penicillin-Streptomycin (at 50 μg streptomycin/ml, Gibco BRL). Membrane fragments were prepared using cell lysis/differential centrifugation methods as described previously (Siciliano et al., 1990, J. Biol. Chem., 265, 19658). […]

THP-1 cells [2] = test: hMCP-1 mediated chemotaxis; format: cell-based, human; conditions: biphasic response
Description: In vitro chemotaxis assays were performed using the human monocytic cell line THP-1. Cell migration through polycarbonate membranes was measured by enumerating those passing through either directly by Coulter counting or indirectly by use of a colourimetric viability assay measuring the cleavage of a tetrazolium salt by the mitochondrial respiratory chain (Scudiero D. A. et al. 1988, Cancer Res., 48, 4827-4833).
Chemoattractants were introduced into a 96-well microtitre plate which forms the lower well of a chemotaxis chamber fitted with a PVP-free 5 μm poresize polycarbonate adhesive framed filter membrane (NeuroProbe MB series, Cabin John, Md. 20818, USA) according to the manufacturer's instructions. […] The plate was incubated at 37° C. for 3 h and the absorbance of the soluble formazan product was read on a microtitre plate reader at 450 nm. The data was input into a spreadsheet, corrected for any random migration in the absence of chemoattractant and the average absorbance values, standard error of the mean, and significance tests were calculated. hMCP-1 induced concentration dependent cell migration with a characteristic biphasic response, maximal […]. […]

EC50 (THP-1 cells [1]): ~2 nM
IC50 (MCP-1 receptor B (CCR2B); cold competition, 100 pM 125I-labeled MCP-1, CHO-CCR2B membrane fragments): 0.11 nM
Kd (MCP-1 receptor B (CCR2B); equilibrium binding, CHO-CCR2B membrane fragments): 0.12 nM
Substance: MCP-1: Human Monocyte Chemoattractant Protein-1, the chemokine ligand of the CCR2 receptor
concentration of maximal cell migration (THP-1 cells [2]): 0.5-1.0 nm
